In patent US9452997B2, “Piperidine and piperazine derivatives as autotaxin inhibitors” (Merck Patent GmbH, priority 2009, dated 2016):

Each compound was assayed against T1, Recombinant autotaxin (Homo sapiens, UniProt Q13822) (assay: Autotaxin assay (Amplex Red, LPC substrate)). Conditions: recombinant autotaxin, LPC substrate, Amplex Red detection; values given as upper bounds.
T1 construct: made in house; host or cells: Hi5 insect cells (baculovirus)
Type: biochemical
In short: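 Recombinant autotaxin (Hi5 baculovirus, 16 ng) pre-incubated with compound 30 min at 22° C, then reacted with 75 μM egg LPC for 90 min at 37° C. Choline released is coupled to H2O2 and Amplex Red fluorescence (ex 485/em 612 nm). IC50 from ten 1:3 dilutions from 30 μM, duplicates, normalised to 500 μM C14 LPA.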

Row | SMILES | IC50
1 | O=C(OCc1cc(Cl)c(F)c(Cl)c1)N1CCC(N2CCN(C(=O)c3ccc4[nH]nnc4c3)CC2)CC1 [Compound 93, 4-[4-(1H-Benzotriazole-5-carbonyl)-piperazin-1-yl]-piperidine-1-carboxylic acid 3,5-dichloro-4-fluoro-benzyl ester] | < 1000 nM
2 | COc1ccc(Cl)cc1COC(=O)N1CCN(C2CCN(C(=O)c3ccc4[nH]nnc4c3)CC2)CC1 [Compound 38, 4-[1-(1H-Benzotriazole-5-carbonyl)-piperidin-4-yl]-piperazine-1-carboxylic acid 5-chloro-2-methoxy-benzyl ester] | < 1000 nM
3 | O=C(OCc1ccccc1Cl)N1CCN(C2CCN(C(=O)c3ccc4[nH]nnc4c3)CC2)CC1 [Compound 39, 4-[1-(1H-Benzotriazole-5-carbonyl)-piperidin-4-yl]-piperazine-1-carboxylic acid 2-chloro-benzyl ester] | < 10000 nM
4 | O=C(OCc1cc(F)c(F)c(C(F)(F)F)c1)N1CCN(C2CCN(C(=O)c3ccc4[nH]nnc4c3)CC2)CC1 [Compound 165, 4-[1-(1H-Benzotriazole-5-carbonyl)-piperidin-4-yl]-piperazine-1-carboxylic acid 3,4-difluoro-5-trifluoromethyl-benzyl ester] | < 1000 nM
5 | CCc1ccc(COC(=O)N2CCN(C3CCN(C(=O)c4ccc5[nH]nnc5c4)CC3)CC2)cc1 [Compound 151, 4-[1-(1H-Benzotriazole-5-carbonyl)-piperidin-4-yl]-piperazine-1-carboxylic acid 4-ethyl-benzyl ester] | < 1000 nM
6 | O=C(OCc1ccc(C(F)(F)F)cc1)N1CCN(C2CCN(C(=O)c3ccc4[nH]c(=S)[nH]c4c3)CC2)CC1 [Compound 127, 4-[1-(2-Thioxo-2,3-dihydro-1H-benzoimidazole-5-carbonyl)-piperidin-4-yl]-piperazine-1-carboxylic acid 4-trifluoromethyl-benzyl ester] | < 10000 nM
7 | O=C(/C=C/c1c[nH]cn1)N1CCN(C2CCN(C(=O)CCc3ccc(C(F)(F)F)cc3)CC2)CC1 [Compound 58, (E)-3-(3H-Imidazol-4-yl)-1-(4-{1-[3-(4-trifluoromethyl-phenyl)-propionyl]-piperidin-4-yl}-piperazin-1-yl)-propenone] | < 10000 nM
8 | O=C(OCc1c(F)c(F)c(C(F)(F)F)c(F)c1F)N1CCC(N2CCN(C(=O)c3ccc4[nH]nnc4c3)CC2)CC1 [Compound 144, 4-[4-(1H-Benzotriazole-5-carbonyl)-piperazin-1-yl]-piperidine-1-carboxylic acid 2,3,5,6-tetrafluoro-4-trifluoromethyl-benzyl ester] | < 1000 nM
9 | O=C(OCc1ccc(Cl)c(F)c1)N1CCN(C2CCN(C(=O)c3ccc4[nH]nnc4c3)CC2)CC1 [Compound 117, 4-[1-(1H-Benzotriazole-5-carbonyl)-piperidin-4-yl]-piperazine-1-carboxylic acid 4-chloro-3-fluoro-benzyl ester] | < 1000 nM
10 | O=C(OCc1cc(C(F)(F)F)cc(C(F)(F)F)c1)N1CCN(C2CCN(C(=O)c3ccc4[nH]c(=S)[nH]c4c3)CC2)CC1 [Compound 161, 4-[1-(2-Thioxo-2,3-dihydro-1H-benzoimidazole-5-carbonyl)-piperidin-4-yl]-piperazine-1-carboxylic acid 3,5-bis-trifluoromethyl-benzyl ester] | < 1000 nM
11 | Cc1ccc(-c2cccc(C(=O)N3CCC(C4CCN(C(=O)c5ccc6[nH]nnc6c5)CC4)CC3)c2)cc1 [Compound 13, [1′-(1H-Benzotriazole-5-carbonyl)-[4,4′]bipiperidinyl-1-yl]-(4′-methyl-biphenyl-3-yl)-methanone] | < 10000 nM
12 | O=C(OCc1cccc(C(F)(F)F)c1)N1CCN(C2CCN(C(=O)c3ccc4[nH]nnc4c3)CC2)CC1 [Compound 115, 4-[1-(1H-Benzotriazole-5-carbonyl)-piperidin-4-yl]-piperaizne-1-carboxylic acid 3-trifluoromethyl-benzyl ester] | < 1000 nM
13 | O=C(c1ccc2[nH]nnc2c1)N1CCC(N2CCN(C(=O)c3nc4cc(C(F)(F)F)ccc4[nH]3)CC2)CC1 [Compound 52, (1H-Benzotriazol-5-yl)-{4-[4-(5-trifluoromethyl-1H-benzoimidazole-2-carbonyl)-piperazin-1-yl]-piperidin-1-yl}-methanone] | < 10000 nM
14 | CSc1ccc(COC(=O)N2CCN(C3CCN(C(=O)c4ccc5[nH]nnc5c4)CC3)CC2)cc1 [Compound 149, 4-[1-(1H-Benzotriazole-5-carbonyl)-piperidin-4-yl]-piperazine-1-carboxylic acid 4-methylsulfanyl-benzyl ester] | < 10000 nM
15 | O=C(Nc1ccc2[nH]c(=O)oc2c1)C1CC(=O)N(C2CCN(C(=O)OCc3ccc(Cl)cc3)CC2)C1 (stereo not drawn) [Compound 16, 4-[2-Oxo-4-(2-oxo-2,3-dihydro-benzooxazol-6-ylcarbamoyl)-pyrrolidin-1-yl]-piperidine-1-carboxylic acid 4-chloro-benzyl ester] | < 10000 nM
16 | O=C(OCc1cc(C(F)(F)F)ccc1F)N1CCC(N2CCN(C(=O)c3ccc4[nH]nnc4c3)CC2)CC1 [Compound 74, 4-[4-(1H-Benzotriazole-5-carbonyl)-piperazin-1-yl]-piperidine-1-carboxylic acid 2-fluoro-5-trifluoromethyl-benzyl ester] | < 10000 nM
17 | O=C(OCc1cc(Cl)cc(Cl)c1)N1CCN(C2CCN(C(=O)c3ccc4[nH]nnc4c3)CC2)CC1 [Compound 19, 4-[1-(1H-Benzotriazole-5-carbonyl)-piperidin-4-yl]-piperazine-1-carboxylic acid 3,5-dichloro-benzyl ester] | < 1000 nM
18 | Cn1nc2ccccc2c1COC(=O)N1CCN(C2CCN(C(=O)c3ccc4[nH]nnc4c3)CC2)CC1 [Compound 134, 4-[1-(1H-Benzotriazole-5-carbonyl)-piperidin-4-yl]-piperazine-1-carboxylic acid 2-methyl-2H-indazol-3-ylmethyl ester] | < 30000 nM
19 | O=C(Nc1ccc2[nH]nnc2c1)C1CC(=O)N(C2CCN(C(=O)CCc3ccc(C(F)(F)F)cc3)CC2)C1 (stereo not drawn) [Compound 3, 5-Oxo-1-{1-[3-(4-trifluoromethyl-phenyl)-propionyl]-piperidin-4-yl}-pyrrolidine-3-carboxylic acid (1H-benzotriazol-5-yl)-amide] | < 1000 nM
20 | O=C(NC1CCC(N2CCN(C(=O)OCc3ccc(SC(F)(F)F)cc3)CC2)CC1)c1ccc2[nH]nnc2c1 (stereo not drawn) [Compound 188, 4-{4-[(1H-Benzotriazole-5-carbonyl)-amino]-cyclohexyl}-piperazine-1-carboxylic acid 4-trifluoromethylsulfanyl-benzyl ester] | < 10000 nM
21 | O=C(OCc1cc(Cl)cc(Cl)c1)N1CCC(C2CCN(C(=O)c3ccc4[nH]nnc4c3)CC2)CC1 [Compound 12, 1′-(1H-Benzotriazole-5-carbonyl)-[4,4′]bipiperidinyl-1-carboxylic acid 3,5-dichloro-benzyl ester] | < 1000 nM
22 | O=C(OCc1c(F)c(F)c(C(F)(F)F)c(F)c1F)N1CCN(C2CCN(C(=O)c3ccc4[nH]nnc4c3)CC2)CC1 [Compound 114, 4-[1-(1H-Benzotriazole-5-carbonyl)-piperidin-4-yl]-piperazine-1-carboxylic acid 2,3,5,6-tetrafluoro-4-trifluoromethyl-benzyl ester] | < 1000 nM
23 | O=C(OCc1cc(Cl)cc(Cl)c1)N1CCC(N2CCN(C(=O)c3ccc4[nH]nnc4c3)CC2)CC1 [Compound 20, 4-[4-(1H-Benzotriazole-5-carbonyl)-piperazin-1-yl]-piperidine-1-carboxylic acid 3,5-dichloro-benzyl ester] | < 1000 nM
24 | O=C(Nc1ccc(-c2csnn2)cc1)C1CC(=O)N(C2CCN(C(=O)OCc3cc(Cl)cc(Cl)c3)CC2)C1 (stereo not drawn) [Compound 57, 4-[2-Oxo-4-(4-[1,2,3]thiadiazol-4-yl-phenylcarbamoyl)-pyrrolidin-1-yl]-piperidine-1-carboxylic acid 3,5-dichloro-benzyl ester] | < 10000 nM
25 | O=C(OCc1ccc(F)c(C(F)(F)F)c1)N1CCN(C2CCN(C(=O)c3ccc4[nH]nnc4c3)CC2)CC1 [Compound 100, 4-[1-(1H-Benzotriazole-5-carbonyl)-piperidin-4-yl]-piperazine-1-carboxylic acid 4-fluoro-3-trifluoromethyl-benzyl ester] | < 1000 nM
26 | O=C(OCc1cc(C(F)(F)F)cc(C(F)(F)F)c1)N1CCC(N2CCN(C(=O)c3ccc4[nH]nnc4c3)CC2)CC1 [Compound 162, 4-[4-(1H-Benzotriazole-5-carbonyl)-piperazin-1-yl]-piperidine-1-carboxylic acid 3,5-bis-trifluoromethyl-benzyl ester] | < 1000 nM
27 | Cc1c(Br)cc(COC(=O)N2CCN(C3CCN(C(=O)c4ccc5[nH]nnc5c4)CC3)CC2)cc1Br [Compound 98, 4-[1-(1H-Benzotriazole-5-carbonyl)-piperidin-4-yl]-piperazine-1-carboxylic acid 3,5-dibromo-4-methyl-benzyl ester] | < 1000 nM
28 | O=C(CCc1ccc(C(F)(F)F)cc1)N1CCN(C2CCN(C(=O)c3ccc4[nH]c(=O)oc4c3)CC2)CC1 [Compound 33, 6-(4-{4-[3-(4-Trifluoromethyl-phenyl)-propionyl]-piperazin-1-yl}-piperidine-1-carbonyl)-3H-benzooxazol-2-one] | < 1000 nM
29 | O=C(Nc1ccc2[nH]nnc2c1)C1CC(=O)N(C2CCN(C(=O)OCc3ccc(Cl)cc3)CC2)C1 (stereo not drawn) [Compound 2, 4-[4-(1H-Benzotriazol-5-ylcarbamoyl)-2-oxo-pyrrolidin-1-yl]-piperidine-1-carboxylic acid 4-chloro-benzyl ester] | < 1000 nM
30 | O=C(OCc1cc(F)c(F)c(F)c1)N1CCC(N2CCN(C(=O)c3ccc4[nH]nnc4c3)CC2)CC1 [Compound 79, 4-[4-(1H-Benzotriazole-5-carbonyl)-piperazin-1-yl]-piperidine-1-carboxylic acid 3,4,5-trifluoro-benzyl ester] | < 1000 nM
